Experimental data: paper PMC6539592, “Functional Analysis of Peptidyl-prolyl cis-trans Isomerase from Aspergillus flavus” (International Journal of Molecular Sciences, 2019)

Molecular target: T1, ppci1 (Aspergillus flavus, UniProt B8NRT5)
T1 construct: E. coli BL21(DE3), modified pRSFDuet-1; N-terminal 6xHis tag removed with PreScission protease
Assay: chymotrypsin-coupled PPIase assay, absorbance at […] nm
Format: biochemical
Conditions: 15 °C, HEPES pH 8.0; substrate succinyl-AAPF-p-nitroanilide; figure labels traces FK506-CsA and FK506-Rap, possibly combined

T1 sequence (B8NRT5 1-122): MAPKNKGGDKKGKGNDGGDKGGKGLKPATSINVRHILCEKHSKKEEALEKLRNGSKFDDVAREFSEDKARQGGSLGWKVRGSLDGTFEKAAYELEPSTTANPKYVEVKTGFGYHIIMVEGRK

SMILES | inhibition
C=CC[C@@H]1/C=C(\C)C[C@H](C)C[C@H](OC)[C@H]2O[C@@](O)(C(=O)C(=O)N3CCCC[C@H]3C(=O)O[C@H](/C(C)=C/[C@@H]3CC[C@@H](O)[C@H](OC)C3)[C@H](C)[C@@H](O)CC1=O)[C@H](C)C[C@@H]2OC [FK506, Tacrolimus] | activity of ppci1 was inhibited by these aforementioned drugs with constantly decreased absorption
CO[C@H]1C[C@@H]2CC[C@@H](C)[C@@](O)(O2)C(=O)C(=O)N2CCCC[C@H]2C(=O)O[C@H]([C@H](C)C[C@@H]2CC[C@@H](O)[C@H](OC)C2)CC(=O)[C@H](C)/C=C(\C)[C@@H](O)[C@@H](OC)C(=O)[C@H](C)C[C@H](C)/C=C/C=C/C=C/1C [Rap, Rapamycin] | We found that FK506, CsA and Rapamycin inhibit the protein activity of ppci1
